Measured values published in BindingDB's records for patent US12281118 (Shanghai Ringene Biopharma, 2025).

Target: T1, Tyrosine-protein phosphatase non-receptor type 11 (Homo sapiens, UniProt Q06124)
T1 sequence (Q06124 whole entry): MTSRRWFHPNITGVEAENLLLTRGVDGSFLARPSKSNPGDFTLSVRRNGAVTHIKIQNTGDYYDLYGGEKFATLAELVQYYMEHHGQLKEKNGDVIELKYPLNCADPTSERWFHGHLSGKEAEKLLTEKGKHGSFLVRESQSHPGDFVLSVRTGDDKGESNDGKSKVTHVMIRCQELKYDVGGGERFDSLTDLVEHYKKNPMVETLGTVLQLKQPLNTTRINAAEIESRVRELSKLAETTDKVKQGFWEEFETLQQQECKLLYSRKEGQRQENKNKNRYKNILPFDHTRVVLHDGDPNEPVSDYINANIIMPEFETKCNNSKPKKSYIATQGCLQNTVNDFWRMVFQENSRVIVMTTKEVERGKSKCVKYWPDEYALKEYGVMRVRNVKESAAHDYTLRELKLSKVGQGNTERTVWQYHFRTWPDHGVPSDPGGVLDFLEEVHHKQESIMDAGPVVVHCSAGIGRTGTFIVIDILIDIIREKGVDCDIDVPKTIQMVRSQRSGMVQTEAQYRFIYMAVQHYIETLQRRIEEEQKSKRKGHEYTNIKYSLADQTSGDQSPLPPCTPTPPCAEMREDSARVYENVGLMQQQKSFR
Assay: Test of Inhibitory Activity Assay
Protocol: (1) Preparing 1×Reaction Buffer according to the BPS Biosciences' Instructions for Use of the SHP2 enzyme. (2) Preparing a compound concentration gradient: Test the test compound at 10 μM under 3× dilution for 10 concentrations, diluting to a 100% dimethyl sulfoxide solution at a 100× final concentration in a 384-well plate, and diluting the compound with Precision 4× for 10 concentrations. […] (3) Preparing the activation peptide solution at a 5× final concentration with the 1×Reaction Buffer, adding 5 μL of the solution to a reaction plate, respectively, and centrifuging at 1000 rpm for 1 min. (4) Preparing an enzyme solution at a 2.5× final concentration with the 1×Reaction Buffer, adding 10 μL of the solution to the reaction plate, respectively, centrifuging at 1000 rpm for 1 min, and incubating at room temperature for 60 min. […] (6) Adding 30 μL of stop test solution to stop the reaction, centrifuging at 1000 rpm for […], and mixing well by shaking. (7) Reading the conversion rate with a Caliper EZ Reader. (7) Data analysis:%Inhibition=Conversion%_max-Conversion%_sampleConversion%_max-Conversion%_min×100Wherein: Conversion %/_sample is the reading of a conversion rate of a sample; Conversion %_min: mean of negative control wells, which represents the reading of a conversion rate in absence of enzyme activity wells; Conversion %_max: mean of a ratio of positive control wells, which represents the reading of a conversion rate in absence of compound inhibition wells.

Compound	IC50 [nM]
Cc1nc(N2CCC3(CC2)Cc2ccccc2[C@H]3N)n2ccnc2c1Sc1cccnc1C(F)(F)F [US12281118, Example 2]	6.3
Cc1nc(N2CCC(C)(N)CC2)n2ncnc2c1-c1cccc(Cl)c1Cl [US12281118, Example 21]	> 1000
Cc1nc(N2CCC(C)(N)CC2)n2cnnc2c1-c1cccc(Cl)c1Cl [US12281118, Example 22]	> 1000
Cc1cc(N2CCC(C)(N)CC2)n2cnnc2c1-c1cccc(Cl)c1Cl [US12281118, Example 23]	> 1000

Other lines, results leading:

IC50 [nM]	Compound
65	Cc1nc(N2CCC(C)(N)CC2)n2ccnc2c1Sc1cccc(Cl)c1Cl [US12281118, Example 25]
53	CC1(N)CCN(c2nc(CF)c(-c3cccc(Cl)c3Cl)c3nccn23)CC1 [US12281118, Example 28]
